Results taken from patent US20070128217A1 (priority 2003, published 2007).

Legend:
[1] = test system: control sera (pooled serum of ten healthy LUMC hospital workers; commercial negative donor pooled serum from the Dutch bloodbank); format: binding, human; set-up: Binding of Control serum LUMC to linear peptides / Binding of Control serum Blood-bank to linear peptides / Binding of Control serum LUMC to looped peptides / Binding of Control Serum Blood-Bank to Looped peptides / Binding of Control serum LUMC to linear peptides of the protein M of SARS-CoV Urbani / Binding of Control serum Blood-bank to linear peptides of the protein M of SARS-CoV Urbani / Binding of Control serum LUMC to looped peptides of the protein M of SARS-CoV Urbani / Binding of Control Serum Blood-Bank to Looped peptides of the protein M of SARS-CoV Urbani: unit not given here
[2] = test system: rabbit serum obtained by immunizing a rabbit with the SARS-CoV strain Frankfurt 1; format: binding; set-up: Binding of a rabbit serum to linear peptides / Binding of a rabbit serum to looped peptides / Rabbit serum linear peptides / Rabbit serum looped peptides / Binding of a rabbit serum to linear peptides of protein N of SARS-CoV Urbani (Rabbit serum linear peptides) / Binding of a rabbit serum to looped/cyclic peptides of protein N of SARS-CoV Urbani (Rabbit serum looped peptides): unit not given here
[3] = test system: recombinant human anti-SARS-CoV antibody 03-018; format: binding; set-up: Binding of antibody 03-018 to linear peptides of the N protein of SARS-CoV Urbani / Binding of antibody 03-018 to looped/cyclic peptides of the N protein of SARS-CoV Urbani: unit not given here
[4] = test system: antibodies in sera from SARS patients (sera 1a, 1b, 2, 6, 37, 62, London, SARS-yellow, SARS-green); format: binding, human; set-up: Binding of serum 6 to linear peptides of protein X1 of SARS-CoV Urbani / Binding of serum 37 to linear peptides of protein X1 of SARS-CoV Urbani / Binding of serum 6 to looped/cyclic peptide (PEPSCAN-ELISA) / Binding of serum 37 to looped/cyclic peptide (PEPSCAN-ELISA) / Binding of serum 37 to looped/cyclic peptides of protein X1 of SARS-CoV Urbani / Binding of serum 6 to linear peptides of protein X2 / Binding of serum 37 to linear peptides of protein X2 / Binding of serum 37 to looped/cyclic peptides of protein X2 of SARS-CoV Urbani / Binding of serum 6 to linear peptides of protein M of SARS-CoV Urbani / Binding of serum 37 to linear peptides of protein M of SARS-CoV Urbani / Binding of serum 6 to looped/cyclic peptides of protein M of SARS-CoV Urbani / Binding of serum 37 to looped/cyclic peptides of protein M of SARS-CoV Urbani / Binding of serum 6 to linear peptides of protein X3 of SARS-CoV Urbani / Binding of serum 37 to linear peptides of protein X3 of SARS-CoV Urbani / Binding of serum 37 to looped/cyclic peptides of protein X3 of SARS-CoV Urbani / Binding of serum 6 to linear peptides of protein X4 of SARS-CoV Urbani / Binding of serum 37 to linear peptides of protein X4 of SARS-CoV Urbani / Binding of serum 37 to looped/cyclic peptides of protein X4 of SARS-CoV Urbani / Binding of serum 6 to linear peptides of protein X5 of SARS-CoV Urbani / Binding of serum 37 to linear peptides of protein X5 of SARS-CoV Urbani / Binding of serum 37 to looped/cyclic peptides of protein X5 of SARS-CoV Urbani / Binding of serum 6 to linear peptides of protein N of SARS-CoV Urbani / Binding of serum 37 to linear peptides of protein N of SARS-CoV Urbani / Binding of serum 6 to linear peptide (PEPSCAN-ELISA) / Binding of serum 1a to looped/cyclic peptides of protein N of SARS-CoV Urbani / Binding of serum 1b to looped/cyclic peptides of protein N of SARS-CoV Urbani / Binding of serum 2 to looped/cyclic peptides of protein N of SARS-CoV Urbani / Binding of serum 6 to looped/cyclic peptides of protein N of SARS-CoV Urbani / Binding of serum 37 to looped/cyclic peptides of protein N of SARS-CoV Urbani / Binding of serum 62 to looped/cyclic peptides of protein N of SARS-CoV Urbani / Binding of serum London to looped/cyclic peptides of protein N of SARS-CoV Urbani / Binding of serum SARS-green to looped/cyclic peptides of protein N of SARS-CoV Urbani: unit not given here

Sequence	Control Serum Blood-Bank Looped peptides [1]	Control serum Blood-bank linear peptides [1]	Control serum LUMC linear peptides [1]	Control serum LUMC looped peptides [1]	Binding of a rabbit serum to linear peptides of protein N of SARS-CoV Urbani (Rabbit serum linear peptides) [2]	Binding of a rabbit serum to looped/cyclic peptides of protein N of SARS-CoV Urbani (Rabbit serum looped peptides) [2]	Binding of antibody 03-018 to linear peptides of the N protein of SARS-CoV Urbani [3]	Binding of antibody 03-018 to looped/cyclic peptides of the N protein of SARS-CoV Urbani [3]	Binding of serum 1a to linear peptides of protein N of SARS-CoV Urbani [4]	Binding of serum 1a to looped/cyclic peptides of protein N of SARS-CoV Urbani [4]	Binding of serum 1b to linear peptides of protein N of SARS-CoV Urbani [4]	Binding of serum 1b to looped/cyclic peptides of protein N of SARS-CoV Urbani [4]	Binding of serum 2 to linear peptides of protein N of SARS-CoV Urbani [4]	Binding of serum 2 to looped/cyclic peptides of protein N of SARS-CoV Urbani [4]	Binding of serum 6 to looped/cyclic peptides of protein N of SARS-CoV Urbani [4]	Binding of serum 37 to looped/cyclic peptides of protein N of SARS-CoV Urbani [4]	Binding of serum 62 to looped/cyclic peptides of protein N of SARS-CoV Urbani [4]	Binding of serum London to looped/cyclic peptides of protein N of SARS-CoV Urbani [4]	Binding of serum SARS-green to looped/cyclic peptides of protein N of SARS-CoV Urbani [4]	Binding of serum SARS-yellow to looped/cyclic peptides of protein N of SARS-CoV Urbani [4]	further results
GMEVTPSGTWLTYHG	0.7	0.6	0.6	0.7	0.1	0.4	0.1	0.2	0.3	0.4	0.1	0.2	0.1	0.4	0.3	0.7	0.8	0.5	0.4	0.5	Binding of serum 6 to linear peptides of protein N of SARS-CoV Urbani [4]: 0.2; Binding of serum 37 to linear peptides of protein N of SARS-CoV Urbani [4]: 0.5; Binding of serum 62 to linear peptides of protein N of SARS-CoV Urbani [4]: 0.6; Binding of serum London to linear peptides of protein N of SARS-CoV Urbani [4]: 0.5; Binding of serum SARS-green to linear peptides of protein N of SARS-CoV Urbani [4]: 0.2; Binding of serum SARS-yellow to linear peptides of protein N of SARS-CoV Urbani [4]: 0.7
GMSRIGMEVTPSGTW	0.6	0.6	0.6	0.5	0.1	0.4	0.1	0.2	0.3	0.3	0.1	0.2	0.2	0.3	0.2	0.5	0.5	0.4	0.3	0.5	Binding of serum 6 to linear peptides of protein N of SARS-CoV Urbani [4]: 0.2; Binding of serum 37 to linear peptides of protein N of SARS-CoV Urbani [4]: 0.7; Binding of serum 62 to linear peptides of protein N of SARS-CoV Urbani [4]: 0.7; Binding of serum London to linear peptides of protein N of SARS-CoV Urbani [4]: 0.5; Binding of serum SARS-green to linear peptides of protein N of SARS-CoV Urbani [4]: 0.5; Binding of serum SARS-yellow to linear peptides of protein N of SARS-CoV Urbani [4]: 0.7
GNFGDQDLIRQGTDY	–	–	–	–	0.2	0.5	0.1	0.2	–	0.5	–	0.3	–	0.5	0.3	0.8	0.8	0.5	0.7	0.6	Binding of Control Serum Blood-Bank to Looped peptides [1]: 0.9; Binding of Control serum Blood-bank to linear peptides [1]: 0.7; Binding of Control serum LUMC to linear peptides [1]: 0.6; Binding of Control serum LUMC to looped peptides [1]: 0.9; Binding of serum 1a to linear peptide (PEPSCAN-ELISA) [4]: 0.3; Binding of serum 1b to linear peptide (PEPSCAN-ELISA) [4]: 0.2; Binding of serum 2 to linear peptide (PEPSCAN-ELISA) [4]: 0.2; Binding of serum 6 to linear peptide (PEPSCAN-ELISA) [4]: 0.2; Binding of serum 37 to linear peptide (PEPSCAN-ELISA) [4]: 0.8; Binding of serum 62 to linear peptide (PEPSCAN-ELISA) [4]: 0.7; Binding of serum London to linear peptide (PEPSCAN-ELISA) [4]: 0.6; Binding of serum SARS-green to linear peptide (PEPSCAN-ELISA) [4]: 0.5; Binding of serum SARS-yellow to linear peptide (PEPSCAN-ELISA) [4]: 0.8
